In this experiment the target is T1, TbPFK (Trypanosoma brucei brucei, UniProt O15648).
T1 construct: made in house; host or cells: Escherichia coli C41 (pET28a, codon optimised gene)
T1 sequence (O15648 1-487): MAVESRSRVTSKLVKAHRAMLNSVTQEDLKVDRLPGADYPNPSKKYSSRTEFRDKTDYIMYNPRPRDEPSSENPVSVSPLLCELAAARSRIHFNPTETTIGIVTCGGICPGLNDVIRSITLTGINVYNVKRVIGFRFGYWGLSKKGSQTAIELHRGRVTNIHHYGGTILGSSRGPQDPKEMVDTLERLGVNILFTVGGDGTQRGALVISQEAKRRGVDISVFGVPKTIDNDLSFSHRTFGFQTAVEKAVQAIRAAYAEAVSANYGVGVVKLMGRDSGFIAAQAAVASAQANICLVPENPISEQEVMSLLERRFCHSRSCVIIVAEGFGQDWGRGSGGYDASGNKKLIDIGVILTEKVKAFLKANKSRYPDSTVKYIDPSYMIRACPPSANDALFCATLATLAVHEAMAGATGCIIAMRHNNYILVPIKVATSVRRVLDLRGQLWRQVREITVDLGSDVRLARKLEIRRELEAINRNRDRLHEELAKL
The experiment in a line: Surface plasmon resonance (SPR). The class given is binding. On the procedure: SPR measurements were performed using a BIAcore T200 instrument (GE Healthcare). Active N-terminally His6-tagged TbPFK surfaces were generated using a His-tag capture and coupling onto Ni^2+‐nitrilotriacetic acid sensor chips. Following Ni^2+ priming (30 s injection of 500 μM NiCl2 at 5 μl min^−1), dextran surface carboxylate groups were minimally activated by an injection of 0.2 M EDC; 50 mM NHS at 5 μl min^−1 for 240 s. TbPFK (at concentrations between 10 and 400 nM), in 10 mM NaH2PO4, pH 7.5; 150 mM NaCl; 50 μM EDTA; 0.05% surfactant p20, was captured via the hexa-His-tag and simultaneously covalently stabilised to between 1500 RU and 3100 RU, by varying the contact time. Immediately following the capture/stabilisation a single 15 s injection of 350 mM EDTA and 50 mM imidazole in 10 mM NaH2PO4, pH 7.5; 150 mM NaCl; 50 mM EDTA; 0.05% surfactant p20, at 30 μl min^−1, was used to remove non-covalently bound protein, followed by a 180 s injection of 1 M H2N(CH2)2OH, pH 8.5 at 5 μl min^−1.
Active N-terminally His6-tagged TbPFK surfaces were generated using a His-tag capture and coupling method described previously (2). The surface density on the SPR chip = 1500 RU. A 1:1 binding model has been fitted to each sensorgram trace (black). All measurements were at 25 °C. […] Source data are provided as a Source Data file.
Background: SPR reads the build-up and loss of mass on a sensor chip optically.

As usually defined, the koff is the rate constant with which the complex falls apart. Usually kon stands for the rate constant with which the complex forms. Higher therefore signals faster complex formation. The term Kd denotes the constant that tells how readily two partners part at equilibrium. A higher Kd goes with a looser complex.

In the case of `CN(C)CCn1ccc2c(ccn2Cc2ccc(Cl)c(Cl)c2)c1=O` [CTCB-405, 1-[(3,4-Dichlorophenyl)methyl]-5-[2-(dimethylamino)ethyl] pyrrolo[3,2-c]pyridin-4-one], the koff amounted to 0.079 s⁻¹ and the kon was 960000 M⁻¹ s⁻¹. Also, for the setting “25 °C”, binding was characterised by a dissociation constant (Kd) of 82 nM.

For the origin of these results see article PMC7887271, “Fast acting allosteric phosphofructokinase inhibitors block trypanosome glycolysis and cure acute African trypanosomiasis in mice” (Nature Communications, 2021).
